From patent publication US12427212B2, “Nectin-4 binding miniproteins, conjugates and uses thereof” (Aktis Oncology, Inc., priority 2023, dated 2025) come the findings set out here.

Bridges are numbered along the chain shown (N, C = ends). [ ]: non-standard residue; d: D form. The star is where a group is joined. DOTA = O=C(O)CN1CCN(CC(=O)O)CCN(CC(=O)*)CCN(CC(=O)O)CC1; Biotin = O=C1N[C@H]2[C@H](CS[C@H]2CCCCC(=O)*)N1; Lys(Me3) = C[N+](C)(C)CCCC[C@H](N)C(=O)O; Cit = NC(=O)NCCC[C@H](N)C(=O)O; PEG4 = NCCOCCOCCOCCOCCC(=O)O

The target in one data set is T1, Nectin-4 (Homo sapiens, UniProt Q96NY8).
T1 sequence (Q96NY8 32-510): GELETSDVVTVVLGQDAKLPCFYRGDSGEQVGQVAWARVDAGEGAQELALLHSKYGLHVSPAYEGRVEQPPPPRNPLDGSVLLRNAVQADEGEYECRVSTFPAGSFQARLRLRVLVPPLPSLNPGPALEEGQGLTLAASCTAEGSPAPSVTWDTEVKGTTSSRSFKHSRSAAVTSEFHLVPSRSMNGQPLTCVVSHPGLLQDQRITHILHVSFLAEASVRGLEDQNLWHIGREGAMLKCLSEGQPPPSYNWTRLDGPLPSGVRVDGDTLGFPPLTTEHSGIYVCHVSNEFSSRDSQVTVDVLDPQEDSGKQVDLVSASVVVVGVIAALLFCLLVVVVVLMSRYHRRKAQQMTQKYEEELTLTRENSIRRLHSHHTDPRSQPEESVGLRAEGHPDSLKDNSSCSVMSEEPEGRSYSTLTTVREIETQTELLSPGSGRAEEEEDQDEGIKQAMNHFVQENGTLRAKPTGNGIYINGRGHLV
The experiment in a line: DELFIA whole cell binding assay, equilibrium binding affinity (KD), Table 2B.
Details: not given
The method, then: A whole cell binding assay was used to estimate the equilibrium binding affinity (KD) or binding inhibition constant (Ki) of miniprotein ligands to cells expressing a target of interest. Cells were dispensed into a 384-well plate and incubated at 37° C., in 5% CO2 overnight. The next day cells were gently washed once in assay buffer prior to addition of europium chelated ligand. For KD determination, a miniprotein conjugated with europium chelate (DOTA or DTPA) in the presence or absence of 100-fold excess un-conjugated ligand was incubated with cells over 12 different concentrations ranging from 100 times below and above expected KD values. For Ki determination, a single concentration (KD equivalent concentration) of europium-chelate miniprotein was added to each well followed immediately by the addition of unconjugated competing ligand over 12 different concentrations ranging from 100 times below and above expected Ki values as before. The plate was incubated for 1.5 h at room temperature to reach binding equilibrium. Cells were then washed three times at room temperature with 1×PBS followed by the addition of 2 M HCl and incubated for two h at 37° C. Following this step, 2 M NaOH and fluorescent inducer solution were added to each well and incubated for 30 minutes at room temperature according to the manufacturer's protocol (Perkin-ELMER DELFIA assay). Plates were read on an Envision plate reader and a curve-fitting model was applied to estimate KD and Ki values using GraphPad Prism software. Mean DELFIA K; values for exemplary miniproteins are recorded in TABLE 9A.
“{Biotin-PEG4}-CEYDEEFFTALKRLRGDDICEYIQASFQYLPGLCIEEILDNLGCS-OH (disulfide 1-34, 20-44) [Compound C181]” showed an equilibrium dissociation constant (Kd) of 3 nM. The same measure, in the same setting: the figure for “{Biotin-PEG4}-CEYDEEFFTALARLRGGDICQYIQAKFAYVPGLCIEEILDNLGCS-OH (disulfide 1-34, 20-44) [Compound C155]” is 1.1 nM. Turning to “{Biotin-PEG4}-CEYDEEFFTALKRLRGGDICYYIQASFQYLPGECIEEILDNLGCS-OH (disulfide 1-34, 20-44) [Compound C177]”, binding was put at a Kd of 2 nM.

Turning to “{Biotin-PEG4}-CEYDEEFFTALKRLRGDDICYYIQASFQYLPGLCIEEILDNLGCS-OH (disulfide 1-34, 20-44) [Compound C180]”, the Kd came out at 2.7 nM. On the same count and under the same terms, then “{Biotin-PEG4}-CDYDEEFFTALA[Cit]LRGGDICEYIQAKFQYLPGLCIEEILDNLGCS-OH (disulfide 1-34, 20-44) [Compound C176]”, with 1.3 nM. “{Biotin-PEG4}-CEYDEQFFTALARLRGGDICEYIQAKFQYLPGLCIEEILDNLGCS-OH (disulfide 1-34, 20-44) [Compound C146]” returned a Kd of 0.54 nM. Same read-out and setting: the figure for “{Biotin-PEG4}-CEYDEEFFTALA[Cit]LRGGDICEYIQAKFQYLPGLCIEEILDNLGCS-OH (disulfide 1-34, 20-44) [Compound C171]” is 2.2 nM; for “{Biotin-PEG4}-CEYDEAFFTALARLRGGDICQYIQAKFQYLPGLCIEEILDNLGCS-OH (disulfide 1-34, 20-44) [Compound C151]” it is 0.68 nM.

On to “{Biotin-PEG4}-CEYDEEFFTALA[Cit]LRGDDICSYIQAKFQYLPGLCIEEILDNLGCS-OH (disulfide 1-34, 20-44) [Compound C172]”, for which binding was put at a Kd of 1.8 nM.

Take “{Biotin-PEG4}-CEYDEQFFTALKRLRGADICDYIQASFQYLPGLCIEEILDNLGCS-OH (disulfide 1-34, 20-44) [Compound C194]”: the affinity, expressed as Kd, was 1.1 nM. Still for that read-out and setting: the figure for “{Biotin-PEG4}-CEYDEEFFTALKRLRGGDICYYIQAKFQYLPKLCIEEILDNLGCS-OH (disulfide 1-34, 20-44) [Compound C119]” is 0.95 nM. As for “{Biotin-PEG4}-CEYDEEFFTALARLRGGDICEYIQAKFQYLPKLCIEEILDNLGCS-OH (disulfide 1-34, 20-44) [Compound C167]”, binding was put at a Kd of 1.2 nM. Compound “{Biotin-PEG4}-CEYDEEFFTALKRLRGGDICEYIQASFQYLPGLCIEEILDNLGCS-OH (disulfide 1-34, 20-44) [Compound C178]” gave a dissociation constant Kd of 1.4 nM. The compound “{Biotin-PEG4}-CDYDEEFFTALKRLRGGDICEYIQASFQYLPGLCIEEILDNLGCS-OH (disulfide 1-34, 20-44) [Compound C188]” came in with a Kd of 1.6 nM. On the same count and under the same terms, the figure for “{Biotin-PEG4}-CEYDEEFFTALA[Cit]LRGGDICSYIQAKFQYLPGLCIEEILDNLGCS-OH (disulfide 1-34, 20-44) [Compound C175]” is 2.3 nM; for “{Biotin-PEG4}-CEYDEQFFTALKRLRGGDICDYIQASFQYLPGLCIEEILDNLGCS-OH (disulfide 1-34, 20-44) [Compound C196]” it is 1.6 nM. The same measure, in the same setting: then “{Biotin-PEG4}-CDYDEEFFTALKRLRGDDICSYIQASFQYLPGLCIEEILDNLGCS-OH (disulfide 1-34, 20-44) [Compound C192]”, with 1.3 nM; and “{Biotin-PEG4}-CEYDEEFFTALARLRGGDICYYIQAYFQYLPGLCIEEILDNLGCS-OH (disulfide 1-34, 20-44) [Compound C165]”, with 4.1 nM; and “{Biotin-PEG4}-CEYDEEFFTALKRLRGGDICEYIQA[Lys(Me3)]FQYLPGLCIEEILDNLGCS-OH (disulfide 1-34, 20-44) [Compound C201]”, with 0.68 nM.

Staying with this data set, now noted: Table 2B, binding to Nectin-4; read-out: Binding Affinity (KD).
Regarding “Ac-CEYDEEFFLGLKRLRGGDICYYIKKKFKKVPDLCIEEILDKLGC-OH (disulfide 1-34, 20-44) [Compound C34]”, the Kd turned out to be 3.17 nM.

Consider “Ac-CEYDEEFFAGLKRLRRGDICYYIKKKFDKVPDLCIEEILDKLGC-OH (disulfide 1-34, 20-44) [Compound C14]”, for which the Kd came out at 14.1 nM.

Turning to “Ac-CEYDEEFFTALARLRGGDICYYIQAKFQYLPGLCIEEILDNLGCS-OH (disulfide 1-34, 20-44) [Compound C124]”, the Kd was found to be 1.1 nM.

For the compound “Ac-CEYDEEFFLGLKRLRGGDICYYIKKKFKKVPELCIEEILKKLGC-OH (disulfide 1-34, 20-44) [Compound C67]”, the Kd was 2.64 nM.

In the case of “Ac-CEYDEEFFKGLKRLRGGDICYYIKKKFKKVPKLCIEEILDKLGC-OH (disulfide 1-34, 20-44) [Compound C80]”, the Kd was 2.7 nM. In the case of “Ac-CEYDEKFFTGLKRLRGGDICYYIKKKFKKVPKLCIEEILDKLGC-OH (disulfide 1-34, 20-44) [Compound C70]”, the Kd worked out at 2.2 nM. Consider “Ac-CEYDEEFFLGLKRLRGGDICYYIKKKFKKVPDLCIEEILEKLGC-OH (disulfide 1-34, 20-44) [Compound C60]”, for which the Kd stood at 3.17 nM.

Test system in a further data set: not listed separately
The experiment in a line: In vivo biodistribution of 111In-labeled miniproteins by SPECT/CT, HT-1376 xenograft. Details: species or system mouse. To be noted: female, athymic nude, mouse, in vivo. The text has this: HT-1376 is a human cell line that expresses Nectin-4.
Humane endpoints: All animals were euthanized following the final imaging time point and carcasses were discarded according to IACUC protocols.
Image Processing: Images were generated as SPECT/CT pairs with the SPECT reported in units of activity.
Image generation: After the preprocessing described in A, individual maximum intensity projections (MIPs) were created with VivoQuant software for each subject at each time point and scaled in percent injected dose per gram (% ID/g). The CT for each image was windowed from −500 to 4500 Hounsfield Units (HU). The SPECT was windowed at various ranges to highlight different regions of uptake. Images were then stitched together using Image Magick based python tools to create montages of subjects over time and time points over groups.
`CC[C@H](C)[C@@H]1NC(=O)[C@H](Cc2ccc(O)cc2)NC(=O)[C@H](Cc2ccc(O)cc2)NC(=O)[C@@H]2CSSC[C@@H](C(=O)O)NC(=O)CNC(=O)[C@H](CC(C)C)NC(=O)[C@H](CC(N)=O)NC(=O)[C@H](CCC(=O)O)NC(=O)[C@H](CC(C)C)NC(=O)[C@H]([C@@H](C)CC)NC(=O)[C@H](CCC(=O)O)NC(=O)[C@H](CCC(=O)O)NC(=O)[C@H]([C@@H](C)CC)NC(=O)[C@H](CSSC[C@H](NC(C)=O)C(=O)N[C@@H](CCC(=O)O)C(=O)N[C@@H](Cc3ccc(O)cc3)C(=O)N[C@@H](CC(=O)O)C(=O)N[C@@H](CCC(=O)O)C(=O)N[C@@H](CCC(N)=O)C(=O)N[C@@H](Cc3ccccc3)C(=O)N[C@@H](Cc3ccccc3)C(=O)N[C@@H]([C@@H](C)O)C(=O)N[C@@H](C)C(=O)N[C@@H](CC(C)C)C(=O)N[C@@H](CCCCN)C(=O)N[C@@H](CCCNC(=N)N)C(=O)N[C@@H](CC(C)C)C(=O)N[C@@H](CCCNC(=N)N)C(=O)NCC(=O)NCC(=O)N[C@@H](CC(=O)O)C(=O)N[C@@H]([C@@H](C)CC)C(=O)N2)NC(=O)[C@H](CC(C)C)NC(=O)[C@H](CC(=O)O)NC(=O)[C@@H]2CCCN2C(=O)[C@H](CC(C)C)NC(=O)[C@H]([C@@H](C)O)NC(=O)[C@H](CC(N)=O)NC(=O)[C@H](Cc2ccccc2)NC(=O)[C@H](CCC(N)=O)NC(=O)[C@H](C)NC(=O)[C@H](CO)NC1=O` [Compound C100] showed a tissue uptake at 4 h of 112 %ID/g and a tissue uptake at 24 h of 61.8 %ID/g. The compound “{DOTA-PEG4}-CEYDEQFFTALSSLRGGDICYYIQEQFANVPGICIEEILDNLGCS-OH (disulfide 1-34, 20-44) [Compound C137]” showed a tissue uptake at 4 h of 78.8 %ID/g and a tissue uptake at 24 h of 42.9 %ID/g. In the same order, the values of “{DOTA-PEG4}-CEYDEEFFTALKRLRGGDICYYIQKAFQYLPGLCIEEILDNLGCS-OH (disulfide 1-34, 20-44) [Compound C121]” are 100 %ID/g and 60.4 %ID/g.

“{DOTA-PEG4}-CEYDEQFFTALARLRGGDICYYIQEQFATVPGLCIEEILDQLGCS-OH (disulfide 1-34, 20-44) [Compound C129]” came in with a tissue uptake at 4 h of 43.5 %ID/g and a tissue uptake at 24 h of 19.9 %ID/g. In the same order, the values of “{DOTA-PEG4}-CEYDEEFFTALSRLRGGDICYYIQQAFQYLPGLCIEEILDNLGCS-OH (disulfide 1-34, 20-44) [Compound C133]” are 43.8 %ID/g and 20.9 %ID/g.
